Test results reported in publication PMC10714399, “Open Source Antibiotics: Simple Diarylimidazoles Are Potent against Methicillin-Resistant Staphylococcus aureus” (ACS Infectious Diseases, 2023).
Converted amounts (≈) assume the structure as drawn. “And” between values parts separate entries of the source, which are not always exact repeats. Equal values may be shown once. Read-outs that look alike come from different tables or passages of the source.

How the values were obtained:
[1] = test system: Staphylococcus aureus NCTC 13373 (mecA-positive; methicillin-resistant); assay: In vitro antibacterial activity, MIC (UCL School of Pharmacy assay), MRSA; type: cell-based; details: for MIC: Staphylococcus aureus
Summary of the method: (§1)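 Broth microdilution in isosensitest broth; inoculum from overnight tryptone soya agar culture adjusted to A600 0.1 (~1 × 10^8 CFU/mL) then diluted 1:100. Compounds tested as 2-fold series, 32 to 0.03 μg/mL, DMSO at most 2%; vancomycin as quality control.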

[2] = Human plasma protein binding (PPB); type: in vitro ADME; details: human, plasma, human plasma, NEU
Excerpt: (§2) To guide our initial SAR exploration work, we obtained liver microsomal intrinsic clearance data for 5 of the 18 compounds assayed by CO-ADD (Supporting Information - CDCO Report and Supporting Information - Biology). We then acquired intrinsic clearance (CLint), plasma protein binding (PPB), and solubility data on further compounds throughout the SAR campaign (Supporting Information - Biology, Tables S3 and S4).
(§3) Table S4. ADME and Pharmacokinetics: compounds only appearing in the Supplementary […]
(§4) MRSA Aqueous HLM CLint Rat Hep CLint
(§5) Cmpd MIC Solubility Human PPB (%) (µL/min/mg (µL/min/10x6 LogD7.4
(§6) (µg/mL) (µM) protein) cells)
(§7) ADME and toxicity for compounds were measured according to procedures outlined in the manuscript submitted in parallel to this one;2 other procedures were used for those compounds analysed by Monash University (in vitro ADME) or UCL (toxicity), both described in the main

Aqueous solubility = type: physicochemical; details: thermodynamic from solid
Excerpt: as §2, with “S4). […] The more polar compounds (lower LogD) had reduced PPB and were more metabolically stable.” for “S4).”
as §3, §4, §5, §6, §7

[3] = test system: S. aureus ATCC 25923 (methicillin-susceptible); assay: In vitro antibacterial activity, MIC (UCL), MSSA; type: cell-based, Staphylococcus aureus; details: for MIC: Staphylococcus aureus
Summary of the method: as §1

[4] = Rat hepatocyte intrinsic clearance; type: in vitro ADME
Excerpt: as §2, §3, §4, §5, §6, §7

LogD7.4 (Chrom Log D) = type: physicochemical
Excerpt: as §2, with “S4). […] The more polar compounds (lower LogD) had reduced PPB and were more metabolically stable.” for “S4).”
as §3, §4, §5, §6, §7

[5] = Human liver microsome intrinsic clearance; type: in vitro ADME
Excerpt: as §2, §3, §4, §5, §6, §7

[6] = test system: PMM (primary mouse macrophages); assay: Toxicity against PMM; type: cell-based
Description: as §7

[7] = test system: MRC-5SV2 (human lung fibroblast cell line); assay: Toxicity against MRC-5SV2; type: cell-based
Description: as §7

[8] = test system: Enterococcus faecalis ATCC 51299 (vanA-positive; vancomycin-resistant); assay: In vitro antibacterial activity, MIC (UCL), VRE; type: cell-based
Summary of the method: as §1

VSE = assay: In vitro antibacterial activity, MIC, VSE; type: cell-based
[9] = UCL assay, read-out: MRSA MIC (ug/mL) (UCL)
[10] = read-out: Human PPB (%) (NEU) (converted)
[11] = NEU, read-out: Aqueous Solubility (uM) (NEU)
[12] = UCL assay, read-out: MSSA MIC (ug/mL) (UCL)
[13] = chromatographic system (Chrom Log D), pH 7.4, NEU, read-out: LogD 7.4 (NEU)
[14] = human liver microsomes, NEU, read-out: HLM CLint (uL/min/mg protein) (NEU)

MIC ([1]; UCL, read-out: MRSA MIC (UCL)) [µg/mL]	MIC (VSE; read-out: VSE MIC (UCL)) [µg/mL]	MIC ([3]; read-out: MSSA MIC (UCL)) [µg/mL]	MIC ([8]; read-out: VRE MIC (UCL)) [µg/mL]	MRSA MIC [1]	VSE MIC (VSE) [µg/mL]	MSSA MIC [3] [µg/mL]	VRE MIC [8] [µg/mL]	Structure (SMILES)	PMM TC50 [6] [µg/mL]	MRC5 TC50 [7] [µg/mL]	PMM TC50 ([6]; PMM) [µM]	MRC5 TC50 ([7]; MRC5 cells) [µM]	other results
								CC(C)CN(c1ccc(F)cc1)c1c(-c2ccccn2)nc2cc(F)ccn12 [OSA_001023]					MIC [1, 9]: 8 µg/mL (≈ 21.1 µM); fraction unbound [2, 10]: 0.0023; solubility (Aqueous solubility; [11]): 11 µM (≈ 4.16 µg/mL); MIC [3, 12]: 4 µg/mL (≈ 10.6 µM); hepatocyte CLint ([4]; rat hepatocytes, NEU, read-out: Rat Hep CLint (uL/min/10x6 cells) (NEU)): 110 µL/min/1e6 cells; chromatographic logD (LogD7.4 (Chrom Log D); [13]): 4.3; microsomal CLint [5, 14]: 13.6 µL/min/mg
								Fc1ccc(-c2c(-c3ccccn3)nc3ccccn23)cc1 [compound 859]	9.3	3.0			activity against MRSA, in words [1]: inactive; MIC ([1]; 16 h, read-out: MRSA MIC): > 32 µg/mL; MIC ([1]; read-out: MRSA MIC): 32 µg/mL (≈ 111 µM); solubility (Aqueous solubility; read-out: Aqueous Solubility): 178 µM (≈ 51.5 µg/mL); hepatocyte CLint ([4]; rat, hepatocytes, Figure 4, read-out: Rat Hep CLint): 49.8 µL/min/1e6 cells; chromatographic logD (LogD7.4 (Chrom Log D); pH 7.4, read-out: LogD7.4): 3; MIC ([8]; read-out: VRE MIC): > 32 µg/mL; microsomal CLint ([5]; human, liver microsomes, read-out: HLM CLint): 168 µL/min/mg
> 32	> 32	> 32	> 32					c1ccc(-n2c(-c3ccccn3)nc3ccccc32)cc1 [OSA_000992]			64	64	
16 (≈ 45.1 µM)	32 (≈ 90.3 µM)	32 (≈ 90.3 µM)	32 (≈ 90.3 µM)					c1ccc(-c2nc3ccccc3n2-c2ccc(N3CCCCC3)cc2)nc1 [OSA_000994]			15.32	19.81	
4 (≈ 11.7 µM)		4 (≈ 11.7 µM)						CCN(CC)c1ccc(-c2c(-c3ccccn3)nc3ccccn23)cc1 [OSA_001011]					fraction unbound ([2]; read-out: Human PPB (NEU) (converted)): 0.004; solubility (Aqueous solubility; NEU, read-out: Aqueous Solubility (NEU)): 38 µM (≈ 13 µg/mL); hepatocyte CLint ([4]; rat hepatocytes, NEU, read-out: Rat Hep CLint (NEU)): 192 µL/min/1e6 cells; chromatographic logD (LogD7.4 (Chrom Log D); [13]): 4.3; microsomal CLint ([5]; human liver microsomes, NEU, read-out: HLM CLint (NEU)): 159 µL/min/mg
				> 32 µg/mL and 32 µg/mL	> 32	32	> 32	N#CCc1ccc(-n2c(-c3ccccn3)nc3ccccc32)cc1 [compound 996]	19.9	19.9			
> 32	> 32	> 32	> 32					c1ccc(-c2nc3ccccc3n2-c2ccc(N3CCOCC3)cc2)nc1 [OSA_000995]			64	64	
				> 32 µg/mL and 32 µg/mL	> 32	> 32	> 32	NC(=O)c1ccc(-n2c(-c3ccccn3)nc3ccccc32)cc1 [compound 989]	20.1	20.1			
				> 32 µg/mL and 32 µg/mL	> 32	> 32	> 32	c1ccc(Cn2c(-c3ccccn3)nc3ccccc32)cc1 [compound 993]	18.3	18.3			
								COc1cccc(-c2nc3ccccn3c2N(CC(C)C)c2ccc(F)cc2)n1 [OSA_001025]					MIC [1, 9]: > 32 µg/mL; fraction unbound [2, 10]: < 0.01; solubility (Aqueous solubility; [11]): 0.7 µM (≈ 0.273 µg/mL); MIC [3, 12]: > 32 µg/mL; chromatographic logD (LogD7.4 (Chrom Log D); [13]): > 3.7; microsomal CLint [5, 14]: 86.8 µL/min/mg
				> 32 µg/mL and 32 µg/mL	> 32	> 32	> 32	c1ccc(-c2nc3ccccc3n2-c2ccc(N3CCOCC3)cc2)nc1 [compound 995]	22.8	22.8			
> 32	> 32	> 32	> 32					c1ccc(Cn2c(-c3ccccn3)nc3ccccc32)cc1 [OSA_000993]			64	64	
								Fc1ccc(Nc2c(-c3ccccn3)nc3ccccn23)cc1 [compound 987]	9.7	2.3			MIC ([1]; read-out: MRSA MIC): 8 µg/mL (≈ 26.3 µM); MIC (VSE; read-out: VSE MIC): 32 µg/mL (≈ 105 µM); MIC ([3]; read-out: MSSA MIC): 16 µg/mL (≈ 52.6 µM); MIC ([8]; read-out: VRE MIC): 32 µg/mL (≈ 105 µM)
